Results as given in patent US20140045823A1 (Neurocrine Biosciences, Inc., priority 2012, published 2014).

These compounds were tested against T1, human GPR119 (Homo sapiens, UniProt Q8TDV5) (assay: AlphaScreen cAMP assay in MIN6 cells stably transfected with human GPR119). Details: Min-6/hGPR119 cells, 45 min at room temperature.
T1 construct: expression vector for human GPR119 cDNA (Acc. No. NP_848566); expressed in transfected cells; Min-6/hGPR119
T1 sequence (Q8TDV5 1-335): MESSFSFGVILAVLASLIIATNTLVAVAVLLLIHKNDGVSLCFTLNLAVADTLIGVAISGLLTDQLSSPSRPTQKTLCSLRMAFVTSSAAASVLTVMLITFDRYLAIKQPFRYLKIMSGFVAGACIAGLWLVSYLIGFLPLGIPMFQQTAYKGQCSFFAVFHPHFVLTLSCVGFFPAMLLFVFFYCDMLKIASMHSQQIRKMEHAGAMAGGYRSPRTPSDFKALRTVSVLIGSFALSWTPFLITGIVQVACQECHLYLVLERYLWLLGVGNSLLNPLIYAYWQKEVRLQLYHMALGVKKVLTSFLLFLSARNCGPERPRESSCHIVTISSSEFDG
Format: cell-based
In short: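 MIN6 cells stably expressing human GPR119, seeded 10000/well and grown 24 h, were exposed to compound in pH 7.4 buffer with 0.5 mM IBMX, 0.1% BSA and 1% DMSO for 45 min at room temperature. Intracellular cAMP then measured by AlphaScreen.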

SMILES | EC50 [µM]
CC(C)OC(=O)N1CCC(N(C(=O)c2cnc(-c3ccc(S(C)(=O)=O)cc3)nc2)C2CC2)CC1 [Example 53, 4-{Cyclopropyl-[2-(4-methanesulfonyl-phenyl)-pyrimidine-5-carbonyl]-amino}-piperidine-1-carboxylic acid isopropyl ester] | 0.12
COCCN(C)C(=O)c1ccc(-c2ncc(C(=O)N(C3CC3)C3CCN(C(=O)OC(C)(C)C)CC3)cn2)cc1F [Example 160, 4-[Cyclopropyl-(2-{3-fluoro-4-[(2-methoxy-ethyl)-methyl-carbamoyl]-phenyl}-pyrimidine-5-carbonyl)-amino]-piperidine-1-carboxylic acid tert-butyl ester] | 0.229
CC(C)(C)OC(=O)N1CCC(N(C(=O)c2cnc(-c3ccc(C(=O)N4CCC(C#N)C4)c(F)c3)nc2)C2CC2)CC1 (stereo not drawn) [Example 163, 4-({2-[4-(3-Cyano-pyrrolidine-1-carbonyl)-3-fluoro-phenyl]-pyrimidine-5-carbonyl}-cyclopropyl-amino)-piperidine-1-carboxylic acid tert-butyl ester] | 0.405
C[C@H](OC(=O)N1CCC(N(C(=O)c2cnc(-c3cnco3)cn2)C2CC2)CC1)C(F)(F)F [Example 258, 4-[Cyclopropyl-(5-oxazol-5-yl-pyrazine-2-carbonyl)-amino]-piperidine-1-carboxylic acid (S)-2,2,2-trifluoro-1-methyl-ethyl ester] | 0.061
CN(Cc1cccnc1)C(=O)c1ccc(-c2ncc(C(=O)N(C3CC3)C3CCN(C(=O)OC(C)(C)C)CC3)cn2)c(F)c1 [Example 166, 4-(Cyclopropyl-{2-[2-fluoro-4-(methyl-pyridin-3-ylmethyl-carbamoyl)-phenyl]-pyrimidine-5-carbonyl}-amino)-piperidine-1-carboxylic acid tert-butyl ester] | 0.359
CC(C)(C)OC(=O)N1CCC(N(C(=O)c2noc(-c3ccc(S(C)(=O)=O)c(F)c3)n2)C2CC2)CC1 [Example 21, 4-{Cyclopropyl-[5-(3-fluoro-4-methanesulfonyl-phenyl)-[1,2,4]oxadiazole-3-carbonyl]-amino}-piperidine-1-carboxylic acid tert-butyl ester] | 0.033
CC(C)(C)OC(=O)N1CCC(N(C(=O)c2cnc(-c3ccc(C(=O)NCC#N)c(F)c3)nc2)C2CC2)CC1 [Example 109, 4-({2-[4-(Cyanomethyl-carbamoyl)-3-fluoro-phenyl]-pyrimidine-5-carbonyl}-cyclopropyl-amino)-piperidine-1-carboxylic acid tert-butyl ester] | 0.085
COc1ccc(NC(=O)c2ccc(-c3ncc(C(=O)N(C4CC4)C4CCN(C(=O)OC(C)(C)C)CC4)cn3)cc2F)cn1 [Example 122, 4-(Cyclopropyl-{2-[3-fluoro-4-(6-methoxy-pyridin-3-ylcarbamoyl)-phenyl]-pyrimidine-5-carbonyl}-amino)-piperidine-1-carboxylic acid tert-butyl ester] | 0.055
CN(Cc1cccnc1)C(=O)Cc1ccc(-c2ncc(C(=O)N(C3CC3)C3CCN(C(=O)OC(C)(C)C)CC3)cn2)cc1 [Example 236, 4-[Cyclopropyl-(2-{4-[(methyl-pyridin-3-ylmethyl-carbamoyl)-methyl]-phenyl}-pyrimdine-5-carbonyl)-amino]-piperidine-1-carboxylic acid tert-butyl ester] | 0.317
COCc1cccc(NC(=O)c2ccc(-c3ncc(C(=O)N(C4CC4)C4CCN(C(=O)OC(C)(C)C)CC4)cn3)cc2F)c1 [Example 156, 4-(Cyclopropyl-{2-[3-fluoro-4-(3-methoxymethyl-phenylcarbamoyl)-phenyl]-pyrimidine-5-carbonyl}-amino)-piperidine-1-carboxylic acid tert-butyl ester] | 0.114
CC(C)(C)OC(=O)N1CCC(N(C(=O)c2cnc(-c3ccc(C(=O)Nc4ccn[nH]4)cc3)nc2)C2CC2)CC1 [Example 208, 4-(Cyclopropyl-{2-[4-(2H-pyrazol-3-ylcarbamoyl)-phenyl]-pyrimidine-5-carbonyl}-amino)-piperidine-1-carboxylic acid tert-butyl ester] | 0.181
CC(C)(C)OC(=O)N1CCC(N(C(=O)c2coc(-c3ccc(C#N)cc3)n2)C2CC2)CC1 [Example 29, 4-{[2-(4-Cyano-phenyl)-oxazole-4-carbonyl]-cyclopropyl-amino}-piperidine-1-carboxylic acid tert-butyl ester] | 0.118
CC(C)(C)OC(=O)N1CCC(N(C(=O)c2cnc(-c3ccc(C(=O)N4CCOCC4)cc3)nc2)C2CC2)CC1 [Example 230, 4-(Cyclopropyl-{2-[4-(morpholine-4-carbonyl)-phenyl]-pyrimidine-5-carbonyl}-amino)-piperidine-1-carboxylic acid tert-butyl ester] | 0.297
CC(C)(C)OC(=O)N1CCC(N(C(=O)c2cc(-c3ccc(C#N)cc3)no2)C2CC2)CC1 [Example 41, 4-{[3-(4-Cyano-phenyl)-isoxazole-5-carbonyl]-cyclopropyl-amino}-piperidine-1-carboxylic acid tert-butyl ester] | 0.011
CC(C)(C)OC(=O)N1CCC(N(C(=O)c2cnc(-c3cnco3)cn2)C2CC2)CC1 [Example 12, 4-[Cyclopropyl-(5-oxazol-5-yl-pyrazine-2-carbonyl)-amino]-piperidine-1-carboxylic acid tert-butyl ester] | 0.072
COC1CCN(C(=O)c2ccc(-c3ncc(C(=O)N(C4CC4)C4CCN(C(=O)OC(C)(C)C)CC4)cn3)cc2F)CC1 [Example 164, 4-(Cyclopropyl-{2-[3-fluoro-4-(4-methoxy-piperidine-1-carbonyl)-phenyl]-pyrimidine-5-carbonyl}-amino)-piperidine-1-carboxylic acid tert-butyl ester] | 0.221
CC(C)(C)OC(=O)N1CCC(N(C(=O)c2cnc(-c3ccc(S(N)(=O)=O)cc3)nc2)C2CC2)CC1 [Example 88, 4-{Cyclopropyl-[2-(4-sulfamoyl-phenyl)-pyrimidine-5-carbonyl]-amino}-piperidine-1-carboxylic acid tert-butyl ester] | 0.349
COC[C@H]1CCCN1C(=O)Cc1ccc(-c2ncc(C(=O)N(C3CC3)C3CCN(C(=O)OC(C)(C)C)CC3)cn2)cc1 [Example 235, 4-[Cyclopropyl-(2-{4-[2-(2-methoxymethyl-pyrrolidin-1-yl)-2-oxo-ethyl]-phenyl}-pyrimidine-5-carbonyl)-amino]-piperidine-1-carboxylic acid tert-butyl ester] | 0.307
COC[C@@H]1CCCN1C(=O)c1ccc(-c2ncc(C(=O)N(C3CC3)C3CCN(C(=O)OC(C)(C)C)CC3)cn2)cc1 [Example 204, 4-(Cyclopropyl-{2-[4-(2-methoxymethyl-pyrrolidine-1-carbonyl)-phenyl]-pyrimidine-5-carbonyl}-amino)-piperidine-1-carboxylic acid tert-butyl ester] | 0.302
CC(C)(C)OC(=O)N1CCC(N(C(=O)c2cnc(-c3ccc(CC(=O)NC[C@H]4CCCC[C@H]4O)cc3)nc2)C2CC2)CC1 [Example 189] | 0.434
COC(=O)c1ccc(-n2cnc(C(=O)N(C3CC3)C3CCN(C(=O)OC(C)(C)C)CC3)c2)c(F)c1 [Example 15, 4-{Cyclopropyl-[1-(2-fluoro-4-methoxycarbonyl-phenyl)-1H-imidazole-4-carbonyl]-amino}-piperidine-1-carboxylic acid tert-butyl ester] | 0.157
CC(C)(C)OC(=O)N1CCC(N(C(=O)c2cnc(-c3cnco3)c(F)c2)C2CC2)CC1 [Example 14, 4-[Cyclopropyl-(5-fluoro-6-oxazol-5-yl-pyridine-3-carbonyl)-amino]-piperidine-1-carboxylic acid tert-butyl ester] | 0.145
CC(C)(C)OC(=O)N1CCC(N(C(=O)c2cc(-c3ccc(C#N)cc3F)no2)C2CC2)CC1 [Example 42, 4-{[3-(4-Cyano-2-fluoro-phenyl)-isoxazole-5-carbonyl]-cyclopropyl-amino}-piperidine-1-carboxylic acid tert-butyl ester] | 0.002
CC(O)c1cccc(NC(=O)c2ccc(-c3ncc(C(=O)N(C4CC4)C4CCN(C(=O)OC(C)(C)C)CC4)cn3)cc2F)c1 (stereo not drawn) [Example 150, 4-[Cyclopropyl-(2-{3-fluoro-4-[3-(1-hydroxy-ethyl)-phenylcarbamoyl]-phenyl}-pyrimidine-5-carbonyl)-amino]-piperidine-1-carboxylic acid tert-butyl ester] | 0.238
CN(C(=O)c1ccc(-c2ncc(C(=O)N(C3CC3)C3CCN(C(=O)OC(C)(C)C)CC3)cn2)cc1)C1CCOCC1 [Example 205, 4-[Cyclopropyl-(2-{4-[methyl-(tetrahydro-pyran-4-yl)-carbamoyl]-phenyl}-pyrimidine-5-carbonyl)-amino]-piperidine-1-carboxylic acid tert-butyl ester] | 0.347
CC(C)(C)OC(=O)N1CCC(N(C(=O)c2ncn(-c3ccc(C#N)cc3F)n2)C2CC2)CC1 [Example 49, 4-{[1-(4-Cyano-2-fluoro-phenyl)-1H-[1,2,4]triazole-3-carbonyl]-cyclopropyl-amino}-piperidine-1-carboxylic acid tert-butyl ester] | 0.149
Cc1noc(C)c1-c1ccc(C(=O)N(C2CC2)C2CCN(C(=O)OC(C)(C)C)CC2)cn1 [Example 11, 4-{Cyclopropyl-[6-(3,5-dimethyl-isoxazol-4-yl)-pyridine-3-carbonyl]-amino}-piperidine-1-carboxylic acid tert-butyl ester] | 0.136
